The values that follow come from the NIST ThermoML archive (doi:10.1021/je3003578).

± gives the expanded uncertainty stated by the source.

For orientation: mass density means the mass of a sample divided by its volume.

For data set [1] the following is noted: 101 kPa, Liquid.
A short description of data set [2]: xn = mol fraction of the nth substance listed. The conditions noted are these: 283.15 K; 101 kPa; Liquid; x2 = 0.

`CCOCCCN` [3-ethoxy-1-propanamine]: the mass density in data set [1] (283.15 K) is 865.36 ± 0.82 kg/m3; in data set [1] (288.15 K), 860.63 ± 0.83 kg/m3; in data set [1] (293.15 K), 855.715 ± 0.84 kg/m3; in data set [1] (298.15 K), 851.018 ± 0.86 kg/m3; in data set [1] (303.15 K), 846.075 ± 0.87 kg/m3.

On to `O` [water] + CCOCCCN, for which, in data set [2], the mass density is 999.699 ± 0.3 kg/m3.
